Test results from PMC6225345, “Structural Characterization of the Lactobacillus Plantarum FlmC Protein Involved in Biofilm Formation” (Molecules : A Journal of Synthetic Chemistry and Natural …, 2018).

Molecular target: T1, ΔTM-FlmC (FlmC81-335) (Lactiplantibacillus plantarum, UniProt F9UMI5)
T1 construct: gene lp_1000
Assay: co-purification from E. coli; organic extraction of unfolded protein, TLC and UHPLC-HRMS
Type: binding
Details: lipid acquired from expression host; identity inferred from m/z 775.5789 (+, in-source dehydro form) and 387.2863 (2-), tentative

T1 sequence (F9UMI5 entry or part of it, stated change not applied): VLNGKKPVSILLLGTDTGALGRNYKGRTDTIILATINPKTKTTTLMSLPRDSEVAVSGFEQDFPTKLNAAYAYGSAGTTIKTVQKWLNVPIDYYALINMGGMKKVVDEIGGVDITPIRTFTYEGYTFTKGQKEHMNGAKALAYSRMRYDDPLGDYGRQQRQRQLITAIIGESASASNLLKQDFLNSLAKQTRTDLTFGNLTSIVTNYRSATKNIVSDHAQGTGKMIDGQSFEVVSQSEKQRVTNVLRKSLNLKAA

SMILES: CC(C)=CCCC(C)=CCCC(C)=CCCC(C)=CCCC(C)=CCCC(C)=CCCC(C)=CCCC(C)=CCCC(C)=CCCC(C)=CCOP(=O)(O)O [decaprenyl phosphate]
- co-purification from E. coli; organic extraction of unfolded protein, TLC and UH: occurrence of a decaprenyl phosphate (dpr-P) ligand tightly bound to the protein was hypothesized
